Measured values from publication PMC3498355, “Isomeric Mono-, Di-, and Tri-Bromobenzo-1H-Triazoles as Inhibitors of Human Protein Kinase CK2α” (PLoS ONE, 2012).
Read-outs that look alike come from different tables or passages of the source.

Experiments:
protein kinase CK2 = conditions: cited from earlier work
human CK2α = molecular target: T1, human CK2α (Homo sapiens, UniProt P68400); assay: CK2α activity, P81 filter isotopic assay (inhibition, IC50); format: biochemical
T1 construct: CK2α was from KinaseDetect Aps; purchased KinaseDetect Aps
T1 sequence (P68400 whole entry): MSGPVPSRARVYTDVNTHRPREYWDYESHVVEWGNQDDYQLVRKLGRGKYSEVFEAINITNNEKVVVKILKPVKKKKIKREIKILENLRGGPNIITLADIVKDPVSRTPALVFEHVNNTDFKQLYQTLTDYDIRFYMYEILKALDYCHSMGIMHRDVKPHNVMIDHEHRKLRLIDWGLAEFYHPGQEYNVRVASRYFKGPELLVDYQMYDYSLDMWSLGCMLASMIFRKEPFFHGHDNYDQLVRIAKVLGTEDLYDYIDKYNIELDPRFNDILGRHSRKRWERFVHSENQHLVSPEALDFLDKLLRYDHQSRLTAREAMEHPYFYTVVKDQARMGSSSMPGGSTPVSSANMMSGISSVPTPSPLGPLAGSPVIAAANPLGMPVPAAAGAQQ
Procedure: CK2α activity was monitored using the P81 filter isotopic assay. The reaction mixture contained 20 mM Tris-HCl, pH 7.5, 20 mM MgCl2, 20 µM DTT, 20 µM peptide substrate, 0.5 mM β-glycerol, 0.1 mM EGTA, 10 µM ATP (200–300 cpm/pmol) and CK2α (0.4 µg/µl). The reaction was initiated with enzyme in a total volume of 50 µl, and incubated at 30°C for 20 min. 10 µl of a reaction mixture was spotted onto a P81 filter. The filter papers were washed 3× with 0.6% phosphoric acid, once with 95% ethanol, then counted in a scintillation counter (Canberra-Packard).
ATP, and Cmax and Cmin are the asymptotic values.

[1] = set-up: method as in PMID 20734498, PMID 22632480; conditions: experimental, aqueous medium; cited from earlier work
[2] = set-up: method as in PMID 20734498, PMID 22632480; conditions: cited from earlier work; for Cw (aqueous solubility): experimental
[3] = set-up: method as in PMID 20734498, PMID 22632480; conditions: ab initio, calculated previously; cited from earlier work
[4] = set-up: method as in PMID 20734498, PMID 22632480; conditions: ab initio, calculated previously; cited from earlier work; remark: listed apart in the source
[5] = 10 µM ATP, 20 µM peptide substrate, pH 7.5, 30°C, 20 min
[6] = acidic solution, compared with neutral pH

IC50 (human CK2α; [5]) | SMILES | pKa (triazole proton dissociation) [1] | Cw (aqueous solubility) [2] | ΔGdiss (free energy of proton dissociation) [3] | ΔGsolv (free energy of solvation of the anionic form) [4] | further results
 | Clc1c(Cl)c(Cl)c2[nH]nnc2c1Cl [4,5,6,7-tetrachloro-benzotriazole] |  |  |  |  | activity against CK2 (in words) (protein kinase CK2): moderate activity
 | Cc1c(C)c(C)c2[nH]nnc2c1C [4,5,6,7-tetramethyl-benzotriazole] |  |  |  |  | activity against CK2 (in words) (protein kinase CK2): low, but detectable, activity
0.38 ± 0.02 µM | Brc1cc2[nH]nnc2c(Br)c1Br [4,5,6-Br3Bt] | 5.91 | 62.3 µM | 52.3 kcal/mol | -40.9 kcal/mol | solubility (in words) [2, 6]: visibly higher; solubility (in words) ([2]; neutral pH): as low as for TBBt
5.8 ± 0.9 µM | Brc1cc(Br)c2[nH]nnc2c1Br [4,5,7-Br3Bt] | 5.38 | 1040 µM | 52.2 kcal/mol | -41.9 kcal/mol | 
10.6 ± 0.9 µM | Brc1ccc2[nH]nnc2c1Br [4,5-Br2Bt] | 6.49 | 499 µM | 54.3 kcal/mol | -46.8 kcal/mol | 
10 ± 2.2 µM | Brc1cc(Br)c2nn[nH]c2c1 [4,6-Br2Bt] | 6.38 | 234 µM | 54.2 kcal/mol | -45.5 kcal/mol | 
72 ± 11 µM | Brc1ccc(Br)c2[nH]nnc12 [4,7-Br2Bt] | 5.84 | 1980 µM | 53.4 kcal/mol | -48.0 kcal/mol | 
119 ± 10 µM | Brc1cccc2[nH]nnc12 [4-BrBt] | 7.08 | 3870 µM | 56.7 kcal/mol | -53.3 kcal/mol | 
0.56 ± 0.02 µM | Brc1cc2nn[nH]c2cc1Br [5,6-Br2Bt] | 6.93 | 231 µM | 55.8 kcal/mol | -44.4 kcal/mol | solubility (in words) [2, 6]: visibly higher; solubility (in words) ([2]; neutral pH): as low as for TBBt
26 ± 3 µM | Brc1ccc2nn[nH]c2c1 [5-BrBt] | 7.55 | 2770 µM | 58.1 kcal/mol | -50.7 kcal/mol | 
> 2000 µM | c1ccc2[nH]nnc2c1 [Bt, benzotriazole, reference compound] | 8.56 | 196000 µM | 59.5 kcal/mol | -59.9 kcal/mol | inhibitory activity against CK2α (in words) (human CK2α): totally inactive; IC50 (human CK2α; as stated in legend of Figure 5): > 2000 µM
 | Brc1c(Br)c(Br)c2[nH]nnc2c1Br [TBBt, 4,5,6,7-tetrabromobenzotriazole, reference compound] |  | 218 µM | 49.7 kcal/mol | -38.0 kcal/mol | solubility (in words) ([2]; neutral form of the ligand): very poorly soluble
 | Brc1c(Br)c(Br)c2[nH]cnc2c1Br [TBBz, 4,5,6,7-tetrabromobenzimidazole] |  |  |  |  | Ki (protein kinase CK2): low µM and sub-µM range; activity relative to TBBt (fold less active) (protein kinase CK2): 4 fold
